Reference: BindingDB's records for doi:10.1016/j.bmcl.2013.07.018 (Chungnam National University, 2013)

Assay: Inhibition of Fas-mediated cell death in oxygen and glucose deprived rat H9c2 cells treated 30 mins before oxygen and glucose deprivation measured after 6 hrs by DAPI staining

SMILES | EC50 [nM]
COC(=O)c1oc2ccccc2c1NC(=O)CSc1ccc([N+](=O)[O-])cc1 | 575
COC(=O)c1cc(Br)cc(Br)c1NC(=O)CCSc1ccccn1 | 933
COC(=O)c1oc2ccccc2c1NC(=O)COc1ccc(Br)cc1 | 1050
COC(=O)c1ccsc1NC(=O)CCSc1ccc(Br)cc1 | 589
COC(=O)c1sccc1NC(=O)CCSc1ccc(Br)cc1 | 1290
COC(=O)c1nn(CCc2ccccc2)cc1NC(=O)CCc1ccccc1 | 427
O=C(CSc1ccc(Br)cc1)Nc1ccccc1C(=O)O | 2240
COC(=O)c1ccccc1NC(=O)CSc1ccccn1 [2-[[1-oxo-2-(2-pyridinylthio)ethyl]amino]benzoic acid methyl ester] | 692
COC(=O)c1sccc1NC(=O)CSc1ccccc1 | 794
COc1cc(NC(=O)CSc2ccc(Br)cc2)c(C2=NCCO2)cc1OC | 955
COC(=O)c1c(NC(=O)CSc2cccc(OC)c2)cnn1CCc1ccccc1 | 437
COC(=O)c1sccc1NC(=O)CCSc1ccccc1 | 501
COC(=O)c1sc2ccccc2c1NC(=O)CCSc1ccc(Br)cc1 | 724
CN(C)C(=O)c1sccc1NC(=O)CSc1ccc(Br)cc1 | 851
COC(=O)c1ccccc1NC(=O)CSc1ccccc1 | 562
COC(=O)c1sccc1NC(=O)CN(C)c1ccccc1 | 661
COC(=O)c1sccc1NC(=O)CSc1cccc(OC)c1 | 575
COC(=O)c1c(NC(=O)CSc2ccc(Br)cc2)cnn1CCc1ccccc1 | 513
COC(=O)c1ccsc1NC(=O)CSc1ccccc1 | 724
COC(=O)c1oc2cccc(Cl)c2c1NC(=O)CCSc1ccccn1 | 631
COC(=O)c1oc2cccc(Cl)c2c1NC(=O)CSc1ccccn1 | 646
COC(=O)c1nn(CCc2ccccc2)cc1NC(=O)COc1ccc(Br)cc1 | 355

SMILES | EC50 [nM]
COC(=O)c1sc2ccccc2c1NC(=O)CSc1ccccc1 | 692
COC(=O)c1ccc(Cl)cc1NC(=O)CCSc1ccccn1 | 1020
COC(=O)c1oc2cccc(Cl)c2c1NC(=O)CSc1ccc(Br)cc1 | 1150
COC(=O)c1cc(Br)cc(Br)c1NC(=O)C(Sc1ccc(Br)cc1)c1ccccc1 (stereo not drawn) | 1580
COC(=O)c1sccc1NC(=O)CSc1ccc(Br)cc1 | 427
Cc1csc(C(=O)O)c1NC(=O)CSc1ccc(Br)cc1 | 1120
COC(=O)c1oc2ccccc2c1NC(=O)CSc1ccc(Br)cc1 | 661
COC(=O)c1sccc1NC(=O)CSc1ccc(OC)cc1 | 871
COC(=O)c1sc2ncccc2c1NC(=O)CCSc1ccccn1 | 490
COC(=O)c1ccc(Cl)cc1NC(=O)CSc1ccc(Br)cc1 | 955
O=C(CCSc1ccccn1)Nc1cc(Cl)ccc1C1=NCCO1 | 1740
COC(=O)c1ccsc1NC(=O)CSc1ccc(Br)cc1 | 759
COC(=O)c1cc(OC)c(OC)c(OC)c1NC(=O)CCSc1ccccn1 | 1070
COC(=O)c1c(NC(=O)CSc2ccc([N+](=O)[O-])cc2)cnn1CCc1ccccc1 | 457
O=C(O)c1cc(Cl)ccc1NC(=O)C(Sc1ccc(Br)cc1)c1ccccc1 (stereo not drawn) | 2000
COc1cc(C(=O)O)c(NC(=O)CCSc2ccccn2)c(OC)c1OC | 2090
COC(=O)c1cc(OC)c(OC)cc1NC(=O)CCSc1ccccn1 | 1320
COC(=O)c1sccc1NC(=O)COc1ccc(Br)cc1 | 891
O=C(CSc1ccc(Br)cc1)Nc1c(C(=O)O)oc2ccccc12 | 724
O=C(CSc1ccc(Br)cc1)Nc1c(Br)cc(Br)cc1C(=O)O | 1230
COC(=O)c1c(NC(=O)CSc2ccccc2N)cnn1CCc1ccccc1 | 513
